# Source: US20060246047A1, “Peptide wirh apoptosis-inhibiting activity” (priority 2003, published 2006)
# T1: Bak (Homo sapiens, UniProt Q16611)
# T1 construct: expressed in transfected cells; host or cells: HEK 293T
# T1 sequence (Q16611 1-211): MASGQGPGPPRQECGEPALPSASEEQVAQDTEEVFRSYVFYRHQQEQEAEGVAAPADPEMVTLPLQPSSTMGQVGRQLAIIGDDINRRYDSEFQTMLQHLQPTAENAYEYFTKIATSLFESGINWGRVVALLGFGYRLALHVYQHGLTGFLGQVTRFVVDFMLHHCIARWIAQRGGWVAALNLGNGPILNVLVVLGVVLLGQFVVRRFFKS
# B1: HTA1320: E. coli-expressed peptide of ART positions 13 to 20 with HIV-Tat sequence and His sequence (protein)
# chain: MRGSHHHHHHGMASMTGGQQMGRDLYDDDDKDRWIRPRDLQLVPWYGRKKRRQRRRPTSSEQIM
# modifications: His-Tat-ART13/20(HTA1320)
# Columns and labels:
# Bax [1] = target: T2, Bax (Homo sapiens, UniProt Q07812); assay: Apoptosis-suppressive activity, summary statements without a stated test; type: cell-based; parameters: expressed in transfected cells; host or cells: HEK 293T; conditions: summary statement
# T2 sequence (Q07812 whole entry): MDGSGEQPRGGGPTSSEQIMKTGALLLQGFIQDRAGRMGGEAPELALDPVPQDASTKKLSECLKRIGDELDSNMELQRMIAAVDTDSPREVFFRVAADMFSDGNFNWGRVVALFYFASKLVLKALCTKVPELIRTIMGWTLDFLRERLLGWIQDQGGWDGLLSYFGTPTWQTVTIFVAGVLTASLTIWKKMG
# HeLa cells [2] = assay: STS-induced apoptosis in Hela cells, modified TAT-ART peptides (Example 8); type: cell-based; conditions: 100, 300 or 1000 nM, 0.2 μM STS, 24 hours
# Experimental: The modified TAT-ART1320 peptides used were TAT-ART1420 (SEQ ID NO: 25) and TAT-ART1320P13V (SEQ ID NO: 26), synthesized with a peptide synthesizer.
# Hela cells (1×10^5 cells) were seeded in 12-well plates and incubated for 24 hours. Subsequently, cells were pre-treated for 1 hour by adding TAT-ART1320 or its modified peptide at a final concentration of 100, 300, or 1000 nM, followed by the addition of 0.2 μM STS and incubation for 24 hours. Cells without the addition of TAT-ART1320 or STS, together with cells without the addition of TAT-ART1320, were prepared as controls. Following incubation, cell death was evaluated by the trypan blue exclusion method.
# Bax [3] = target: T2, Bax; assay: STS-induced mitochondrial translocation of Bax in COS7 cells, confocal microscopy; type: cell-based; parameters: expressed in transfected cells; conditions: 1000 nM pretreatment 1 hour, COS7 with pCI-myc-Bax
# Experimental: It is considered that, in order for Bax to induce apoptosis, it is essential for Bax to localize to mitochondria. Thus, the effect of TAT-ARTI320 on STS-induced mitochondrial translocation of Bax was examined.
# COS7 cells (4×10^4 cells) were seeded in 12-well plates and incubated for 24 hours and then transfected with 1 μg of the pCI-myc-Bax gene. Subsequently, after further incubation for 23 hours, cells were pretreated for 1 hour with 1000 nM TAT-ART1320. Cells without TAT-ART1320 pretreatment were also prepared as controls. Further, […] of STS and 100 nM MitoTracker Orange (manufactured by Molecular Probes) were added and, after one hour, cells were fixed with 3% formaldehyde solution. Cells without the addition of STS were also prepared as controls.
# HeLa cells [4] = assay: STS-induced Bax-dependent apoptosis in HeLa cells, trypan blue exclusion; type: cell-based; conditions: 0.2 μM STS, 24 hours
# Experimental: (§1) It is known that apoptosis induced by staurosporine (STS) is Bax-dependent. Thus, it was examined whether TAT-ART1320 can suppress STS-induced apoptosis.
# (§2) HEK 293T cells or HeLa cells, at 5×10^4 cells each, were seeded in 12-well plates and incubated for 24 hours. Subsequently, cells were pre-treated by adding TAT-ART1320 at a final concentration of 100, 300, or 1000 nM, followed by further incubation for 24 hours. Then STS was added to HEK 293T cells and HeLa cells at 0.5 μM and 0.2 μM, respectively, followed by incubation for 24 hours. Cells without the addition of TAT-ART1320 or STS, together with cells without the addition of TAT-ART1320, were prepared as controls. Following incubation, cell death was evaluated by the trypan blue exclusion method.
# Bax [5] = target: T2, Bax; assay: Apoptosis induced by overexpression of myc-Bax in HEK 293T cells, trypan blue exclusion; type: cell-based; parameters: expressed in transfected cells; host or cells: HEK 293T; conditions: 100, 300 or 1000 nM, 24 hours
# Experimental: (§3) HEK 293T cells (1×10^5 cells) were seeded in 12-well plates and incubated for 24 hours. Subsequently, myc, myc-Bax, or myc-Bak was overexpressed within cells by introducing pCI-myc, pCI-myc-Bax, or pCI-myc-Bakplasmid respectively into HEK 293 T cells. After incubation for 17 hours, TAT-ART1320 was added at a final concentration of 100, 300, or 1000 nM, followed by further incubation for 24 hours. Cells without the addition of TAT-ARTI320 were used as controls. Following incubation, cell death was evaluated by the trypan blue exclusion method.
# [6] = test system: brain ischemia model gerbils; assay: Brain ischemia model, 4 min bilateral common carotid artery occlusion and reperfusion; type: in vivo, gerbil
# Experimental: Next, to confirm the effect of the peptide according to the present invention on apoptosis-induced diseases, such as neurodegenerative diseases, using a model of brain ischemia induced by a 4 min occlusion of the bilateral common carotid arteries in gerbils the influence of TAT-ART1320 ([…]) on the neurological symptom scores after reperfusion and on delayed neuronal death in hippocampus four days after reperfusion.
# Thirteen-week-old male gerbils (SPF, Japan SLC, Inc.) were kept over a week in a barrier system animal room with controlled temperature (23±2° C), humidity (55±15%), ventilation (at least 5 air changes/hour), and light (12 hour light period, 6:30 a.m. to 6:30 p.m.). The gerbils thus maintained, weighing 60 to 80 g, were used as test animals. Food and water were provided at libitum.
# Under ether anesthesia, test animals underwent a midline skin incision in the neck to expose the bilateral internal carotid arteries (the ether anesthesia was stopped on exposure of the bilateral internal carotid arteries), which were occluded bilaterally with artery forceps, to induce brain ischemia. Reperfusion was initiated by removing the artery forceps 4 min after occlusion and the skin was sutured, immediately followed by administration of TAT-ART1320 or saline. Subsequently, test animals were warmed under an infrared lamp until their activity was recovered.
# TAT-ART1320 was prepared for administration by dissolving 3 or 30 mg of TAT-ART1320 in 10 ml of saline. This solution was administered at a dose of 10 ml/kg BW. Immediately after reperfusion TAT-ART1320 was intravenously injected into the caudal vain of each animal at 3 mg/kg BW or 30 mg/kg BW, followed by another intravenous injection after 5 hours. (The animals (n=13) receiving TAT-ART1320 at 3 mg/kg BW and animals receiving TAT-ART1320 at 30 mg/kg BW were called the 3 mg/kg group and the 30 mg/kg group, respectively.) The next day, intravenous injection was switched to subcutaneous injection and the same doses of TAT-ART1320 were administered twice at intervals of 5 hours, followed by once-daily SC injection. Animals (n=13: control group) receiving only saline were used as controls.
# Immediately after reperfusion and subsequent administration of TAT-ART1320 or saline, observation of symptoms of the central nervous system (disturbance of consciousness, convulsions, suppression of motor responses, blepharoptosis) was started. […]
# The bilateral hippocampal regions were excised from the fixed brain and 4 μm paraffin sections (about 1.5 mm posterior from the bregma) were prepared from each hippocampus. […] Subsequently, the length of bilateral hippocampal CA1 regions was measured with an image analyzer (MacSCOPE). Further, the number of survived neurons in each section was counted under a microscope. […]
# HEK 293T cells = assay: STS-induced Bax-dependent apoptosis in HEK 293T cells, trypan blue exclusion; type: cell-based; conditions: 0.5 μM STS, 24 hours
# Experimental: as §1, §2
# Bak = target: T1, Bak; assay: Apoptosis induced by overexpression of myc-Bak in HEK 293T cells, trypan blue exclusion; type: cell-based; conditions: 100, 300 or 1000 nM, 24 hours
# Experimental: as §3
# Bax [7] = target: T2, Bax; assay: Bax-induced apoptosis in pCI-Bax-transfected HEK 293T cells with HTA1320 added, trypan blue exclusion; type: cell-based; parameters: expressed in transfected cells; host or cells: HEK 293T; conditions: survival after 40 hours
# Experimental: It was examined whether or not HTAI320, prepared in Example 3, inhibits Bax-induced apoptosis-promoting activity. HEK 293T cells were plated at 1×10^5 cells per well on 12-well plastic dishes and incubated overnight. Subsequently, cells were transfected with pCI-Bax by lipofection using opti-MEM (manufactured by GibcoBRL) and Lipofectamine (manufactured by GibcoBRL). After five hours, the medium was changed and HTA1320 were added at various concentrations. Subsequently, the cell survival rate after 40 hours was evaluated by the trypan blue exclusion method. As a result, HTA1320 inhibited Bax-induced apoptosis-promoting activity.
molecule,measurement,setting,value
"SEQ ID NO: 1: peptide from threonine in the 14th position to methionine in the 20th position of the ART sequence (TSSEQIM; Inventor Imoto, Masaya Inventor Tabe, Hirokazu Inventor Tashiro, Etsu Inventor OHMORI, Yusuke; listed as Homo sapiens)",apoptosis-suppressive activity,Bax [1],stronger apoptosis- suppressive activity than the peptide (SEQ ID NO: 2)
same,suppression of STS-induced apoptosis compared with TAT-ART1320 (SEQ ID NO: 2 peptide),HeLa cells [2],stronger suppressive activity
SEQ ID NO: 2: peptide from proline in the 13th position to methionine in the 20th position of the ART sequence (PTSSEQIM; listed as Homo sapiens),apoptosis-suppressive activity,Bax [1],strong apoptosis-suppressive activity
same,STS-induced mitochondrial localization / translocation of Bax,Bax [3],effect of suppressing SIS-induced mitochondrial translocation of Bax
"TAT-ART1320: HIV-TAT sequence linked to ART positions 13 to 20, synthesized with a peptide synthesizer (YGRKKRRQRRRPTSSEQIM; TAT-ART1320)",concentrations suppressing STS-induced apoptosis,HeLa cells [4],100 to 1000 nM
same,inhibition of apoptosis induced by overexpression of Bax,Bax [5],inhibits
same,change of neurological symptoms scores with dose,[6]; 3 mg/kg and 30 mg/kg groups,dose-dependent decrease
same,number of survived neurons per unit length in hippocampal CA1,"[6]; 30 mg/kg group, four days after reperfusion, control 15.4±5.2",74.5±23.1
same,neurological symptoms score,"[6]; 30 mg/kg group, i.v. then s.c., control 8.2±1.4, P<0.05",2.8±0.6
same,neuronal death in hippocampal CA1,"[6]; 3 and 30 mg/kg groups, four days after reperfusion",significantly suppresses neuronal death
same,STS-induced mitochondrial localization / translocation of Bax,Bax [3],Bax did not localize to mitochondria
same,concentrations suppressing STS-induced apoptosis,HEK 293T cells,1 to 100 nM
same,inhibition of apoptosis induced by overexpression of Bak,Bak,cannot inhibit
"TAT-ART1420: modified TAT-ART1320 peptide, ART positions 14 to 20, synthesized with a peptide synthesizer (YGRKKRRQRRRTSSEQIM; TAT-ART1420)",suppression of STS-induced apoptosis compared with TAT-ART1320 (SEQ ID NO: 2 peptide),HeLa cells [2],equal to or greater than that of TAT-ART1320
VTSSEQIM (ART1320P13V) [SEQ ID NO: 7],suppression of STS-induced apoptosis compared with TAT-ART1320 (SEQ ID NO: 2 peptide),HeLa cells [2],stronger suppressive activity
B1,apoptosis-suppressive activity at low concentrations versus high concentrations,Bax [7]; low concentrations,almost equivalent to that at high concentrations
same,inhibition of Bax-induced apoptosis-promoting activity,Bax [7]; various concentrations,inhibited
